The values that follow come from article PMC7949049 (The Journal of Biological Chemistry, 2020).

One data set has as its target T1, RhoA·GMPPNP (Homo sapiens, UniProt P61586, F25N/Q63L).
T1 construct: RhoA (pGEX-2T, 1–186, F25N/Q63L); GST (cleaved yes); made in house
As to the kind of experiment: Direct-binding fluorescence polarization, RhoA. The note with it: 20 nM FAM-labelled non-solubilized peptide; n ≥ 2; ± standard error from curve fitting; read-out: Kd RhoA, FP (Table S1). The method, then:
(§1) FP experiments were performed on a BMG Labtech Pherastar fluorimeter at 298 K with excitation at 485 nm and emission at 520 nm as described previously ([34]), using 20 nM FAM-labeled peptide. Plates were read after 30 min incubation at room temperature. Data were fitted to a single-site binding model using nonlinear regression analysis in GraphPad prism 8.4 to obtain Kd values and their standard errors.
A general note: Polarisation of emitted light reports the rotation of a fluorescent probe.

In a further data set the target is T2, Cdc42 (Homo sapiens, UniProt P60953, Q61L).
T2 construct: Cdc42 (pGEX-2T, 1–184, Q61L); GST (cleaved yes); made in house
T2 sequence (P60953 1-184 Q61L, species assumed): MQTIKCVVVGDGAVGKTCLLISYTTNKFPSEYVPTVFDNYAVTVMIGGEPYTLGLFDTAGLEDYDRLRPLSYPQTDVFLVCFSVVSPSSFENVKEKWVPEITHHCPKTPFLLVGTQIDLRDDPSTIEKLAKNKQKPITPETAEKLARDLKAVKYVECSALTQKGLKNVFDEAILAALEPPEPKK
As to the kind of experiment: Direct-binding fluorescence polarization, Cdc42. The note with it: 20 nM FAM-labelled non-solubilized peptide; n ≥ 2; ± standard error from curve fitting; read-out: Kd Cdc42, FP (Table S1). The method, then:
as §1

A short description of data set [1]: Solubility in aqueous solution (observation). The settings on record: qualitative. The data set is classed as physicochemical.
The test system of another data set is cells. The note with it: confocal microscopy of FAM-labeled peptide; cited from earlier work. The source says: It has been shown previously that stapled peptides need to form an amphipathic helix in order to enter cells ([52]), and the amphipathicity of our peptide was disrupted by the inclusion of the so ...
A further data set concerns the target T3, RalA·GTP (Homo sapiens, UniProt P11233, Q72L).
T3 construct: RalA (pMAT10, residues 1–184, Q72L); His6-MBP (cleaved yes); made in house; host or cells: E. coli (inferred from the pMAT10/pGEX vectors)
T3 sequence (P11233 1-184 Q72L): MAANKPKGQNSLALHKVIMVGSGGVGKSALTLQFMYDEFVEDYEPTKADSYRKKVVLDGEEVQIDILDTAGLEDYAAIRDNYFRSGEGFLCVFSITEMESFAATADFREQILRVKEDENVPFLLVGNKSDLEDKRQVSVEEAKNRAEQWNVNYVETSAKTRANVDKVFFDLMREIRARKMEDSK
Put plainly: Competition SPA, RalA against immobilized His-tagged wild-type RLIP76 RBD. It counts as binding.

The subject of data set [2] is V5-RalB Q72L / flag-RLIP76 complex. As to the kind of experiment: Coimmunoprecipitation of RalB/RLIP76 in HEK293T cell lysate. The data set is classed as biochemical. The settings on record: V5-RalB Q72L and flag-RLIP76, peptide 1 h at 4 °C, anti-V5 IP, western blot. The method, then:
(§2) 3 × 10^6 HEK293T cells were seeded in 10 cm dishes 48 h before the end point, in DMEM supplemented with 10% FBS. […] Dishes were lysed in 1 ml lysis buffer (50 mM Tris-HCl pH 7.8, 150 mM NaCl, 1% Triton, 1 mM EDTA, 1 mM sodium orthovanadate, 1 mM β-glycerophosphate, and protease inhibitor cocktail (Sigma-Aldrich). Lysates (1 ml) were centrifuged at 17,000g for 20 min and added to Protein G Dynabeads (30 μl, Invitrogen) preincubated with anti-V5 antibody (1 μg, R960-25, Invitrogen). Peptides, at the concentrations indicated in the results, were added and incubated with rotation for 1 h at 4 °C. Precipitated complexes were washed with lysis buffer (3 × 500 μl). Samples were resolved by SDS-PAGE and transferred to PVDF membranes (Immobilon-P). Membranes were probed by immunoblotting with the following primary antibodies: anti-V5-HRP (R961-25, Invitrogen), anti-flag-HRP (A8592, Sigma-Aldrich), and anti-Sec5 (EPR9420, Abcam).
A general note: Immunoblotting shows a protein as a band on a membrane.

The test system of data set [3] is V5-RalB Q72L / endogenous Sec5 complex. As to the kind of experiment: Coimmunoprecipitation of RalB/Sec5 in HEK293T cell lysate. It counts as biochemical. The settings on record: peptide 1 h at 4 °C, anti-V5 IP, western blot. The method, then: as §2
Data set [4] is described as follows: Circular dichroism, helicity. The data set is classed as physicochemical. The settings on record: CD 185-260 nm, 0.2 mg/ml peptide in water, 298 K; CDSSTR method, reference set 3, Dichroweb.
Description: CD spectra were recorded at 1 nm intervals between 260 and 185 nm using an Aviv Model 410 CD spectrometer with a 1 mm path length quartz cuvette at 298 K. Three scans were recorded for each peptide or protein, the data were averaged, and the buffer background was subtracted. RLIP76 RBDs were measured at 0.2 mg/ml in 10 mM phosphate buffer, pH 7.3, and 150 mM NaF, while peptides were measured at 0.2 mg/ml in water. The helical content of each peptide and RBD was determined using the CDSSTR method with reference Set 3 and DichroWeb ([59], [60], [61]).

“Also recorded” adds a separate entry of the source. Positions of bridges follow the written chain, without caps; N, C: chain ends. Non-standard residues stand in square brackets, D forms with d. Residues, ends and D or L forms follow the SMILES beside them. *: point of attachment. 5FAM = O=C1OC2(c3ccc(O)cc3Oc3cc(O)ccc32)c2ccc(C(=O)*)cc21; S5 = C=CCCC[C@](C)(N)C(=O)O

T1 sequence (P61586 1-186 F25N/Q63L): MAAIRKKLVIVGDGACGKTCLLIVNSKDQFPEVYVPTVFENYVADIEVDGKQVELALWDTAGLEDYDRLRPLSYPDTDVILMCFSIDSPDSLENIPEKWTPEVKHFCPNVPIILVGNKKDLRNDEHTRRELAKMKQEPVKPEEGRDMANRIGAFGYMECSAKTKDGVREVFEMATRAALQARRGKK

With `CC[C@H](C)[C@H](NC(=O)[C@H](CCCNC(=N)N)NC(=O)[C@H](CCC(N)=O)NC(=O)[C@@H](NC(=O)[C@H](CCC(=O)O)NC(=O)[C@H](Cc1c[nH]c2ccccc12)NC(=O)[C@H](CC(C)C)NC(=O)[C@]1(C)CCCC=CCCC[C@](C)(NC(=O)[C@H](CC(C)C)NC(=O)c2ccc3c(c2)C(=O)OC32c3ccc(O)cc3Oc3cc(O)ccc32)C(=O)N[C@@H](CCCCN)C(=O)N[C@@H](CCC(=O)O)C(=O)N[C@@H](CCC(=O)O)C(=O)N1)C(C)C)C(=O)N[C@@H](CC(C)C)C(=O)N[C@H](C(=O)N[C@@H](C)C(=O)N[C@@H](CC(C)C)C(=O)N[C@@H](CCCCN)C(=O)N[C@@H](CCCNC(=N)N)C(=O)N[C@@H](CCCCN)C(=O)N[C@@H](CC(C)C)C(=O)N[C@@H](CCCNC(=N)N)C(=O)N[C@@H](CCC(=O)O)C(=O)N[C@@H](C)C(N)=O)[C@@H](C)O` [SP1] (5FAM-L[S5]KEE[S5]LWEVQRILTALKRKLREA-NH2; staple 2-6), the Kd on RhoA·GMPPNP worked out at 0.0338 ± 0.0054 µM; on Cdc42 it was 13 ± 7.4 µM. The solubility result in data set [1] was “poor solubility; also recorded: poorly soluble”. Further, the “cell entry (previous work)” value in the data set with cells is “able to enter cells”.

In turn, `CC[C@H](C)[C@H](NC(=O)[C@H](CCCNC(=N)N)NC(=O)[C@H](CCC(N)=O)NC(=O)[C@H](CCC(=O)O)NC(=O)[C@H](CCC(=O)O)NC(=O)[C@H](C)NC(=O)[C@H](CC(C)C)NC(=O)[C@]1(C)CCCC=CCCC[C@](C)(NC(=O)[C@@H](N)CC(C)C)C(=O)N[C@@H](CCCCN)C(=O)N[C@@H](CCC(=O)O)C(=O)N[C@@H](CCC(=O)O)C(=O)N1)C(=O)N[C@@H](CCCCN)C(=O)N[C@H](C(=O)N[C@@H](C)C(=O)N[C@@H](CCC(=O)O)C(=O)N[C@@H](CCCCN)C(=O)N[C@@H](CCCNC(=N)N)C(=O)N[C@@H](CCCCN)C(=O)N[C@@H](CCCCN)C(=O)N[C@@H](CCCNC(=N)N)C(=O)N[C@@H](CCC(=O)O)C(=O)N[C@@H](C)C(N)=O)[C@@H](C)O` [W430A-sol] (H-L[S5]KEE[S5]LAEEQRIKTAEKRKKREA-NH2; staple 2-6; N-terminus assumed) came in with a Kd on RalA·GTP above 100 µM. The “Kd RalA·GTP, Competition SPA (RLIP76)” value at RalA·GTP (peptides titrated into [3H]-GTP RalA (100 nM) and His-tagged wild-type RLIP76 RBD on SPA beads, apparent Kd (Ki), ± standard error from curve fitting) is on record as “very weak binding”. Moreover, the “disruption of RalB–RLIP76 complex in cell lysate” value in data set [2] was “did not inhibit complex formation”. Also, the “disruption of RalB–Sec5 complex in cell lysate” value in data set [3] was “did not inhibit complex formation”.

With `CC[C@H](C)[C@H](NC(=O)[C@H](CCCNC(=N)N)NC(=O)[C@H](CCC(N)=O)NC(=O)[C@H](CCC(=O)O)NC(=O)[C@H](CCC(=O)O)NC(=O)[C@H](Cc1c[nH]c2ccccc12)NC(=O)[C@H](CC(C)C)NC(=O)[C@]1(C)CCCC=CCCC[C@](C)(NC(=O)[C@@H](N)CC(C)C)C(=O)N[C@@H](CCCCN)C(=O)N[C@@H](CCC(=O)O)C(=O)N[C@@H](CCC(=O)O)C(=O)N1)C(=O)N[C@@H](CCCCN)C(=O)N[C@H](C(=O)N[C@@H](C)C(=O)N[C@@H](CCC(=O)O)C(=O)N[C@@H](CCCCN)C(=O)N[C@@H](CCCNC(=N)N)C(=O)N[C@@H](CCCCN)C(=O)N[C@@H](CCCCN)C(=O)N[C@@H](CCCNC(=N)N)C(=O)N[C@@H](CCC(=O)O)C(=O)N[C@@H](C)C(N)=O)[C@@H](C)O` [wt-sol] (H-L[S5]KEE[S5]LWEEQRIKTAEKRKKREA-NH2; staple 2-6; N-terminus assumed), in data set [4], the “Helicity (%) of peptides” value was determined as 46%.

Broadly, the Kd is the constant that tells how readily two partners part at equilibrium.
